Experimental data as given in patent US20160122387A1, “Angiotensin Peptide and Pharmaceutical Compositions for Disease Treatment” (UNIVERSIDADE FEDERAL DE MINAS GERAIS - UFMG, priority 2012, published 2016).

Columns and labels:
awake Wistar rats = assay: Acute IV bolus administration, MAP and HR in awake Wistar rats; assay type: in vivo, rat; conditions: IV bolus 0.5 nmol/kg
Description: Wistar and SHR rats were anesthetized with 2.5% tribromoethanol, intraperitoneally (1 mL/100 g). For femoral artery cannulation, cannulas made by connecting 15 cm polyethylene PESO to 4 cm of PE10 polyethylene were used, filled with saline solution (NaCl 0.9%) and heparin (100 IU/0.1 mL). After the animal was placed supine on the operating table, a trichotomy of the right inguinal region of the animal was performed. A small skin incision was made; the femoral neurovascular bundle was located and the femoral artery isolated. The cannula was introduced into the abdominal aorta through the femoral artery and was used for obtaining the cardiovascular parameters. […] The values of mean arterial pressure (MAP) and heart rate (HR) were calculated from PA pulses and recorded by the data acquisition system (BIOPAC System, Model MP150). The pulsatile arterial pressure (PAP) was recorded by a signal sent to a transducer connected to the cannula inserted into the abdominal aorta via the femoral artery. […] Through the card reader software, AcqKnowledge v.3.5.7 (Biopac System), PAP was continuously recorded with a sampling frequency of 2000-4000 Hz. […] After injection of the peptide or saline, cardiovascular parameters were continuously monitored for a period of 5 hours. […]

conscious SHR = assay: Acute IV bolus administration, MAP and HR in conscious SHR; assay type: in vivo, rat
Description: Wistar and SHR rats were anesthetized with 2.5% tribromoethanol, intraperitoneally (1 mL/100 g). For femoral artery cannulation, cannulas made by connecting 15 cm polyethylene PESO to 4 cm of PE10 polyethylene were used, filled with saline solution (NaCl 0.9%) and heparin (100 IU/0.1 mL). After the animal was placed supine on the operating table, a trichotomy of the right inguinal region of the animal was performed. A small skin incision was made; the femoral neurovascular bundle was located and the femoral artery isolated. The cannula was introduced into the abdominal aorta through the femoral artery and was used for obtaining the cardiovascular parameters. A second cannula made by connecting 15 cm polyethylene PESO to 2 cm of PE10 polyethylene, filled with saline (0.9% NaCl), was inserted into the femoral vein for administration of peptides. After cannulation, the catheters were secured and exteriorized subcutaneously into the back of the animal, in the cervical region. The incisions were sutured and the animals placed in individual cages, with free access to water and feed. The values of mean arterial pressure (MAP) and heart rate (HR) were calculated from PA pulses and recorded by the data acquisition system (BIOPAC System, Model MP150). The pulsatile arterial pressure (PAP) was recorded by a signal sent to a transducer connected to the cannula inserted into the abdominal aorta via the femoral artery. The pressure oscillations were captured, amplified and converted by an analog/digital conversion board feeding signals to the data acquisition board. Through the card reader software, AcqKnowledge v.3.5.7 (Biopac System), PAP was continuously recorded with a sampling frequency of 2000-4000 Hz. Twenty-four hours after implantation of the cannulas was conducted, the first protocol, which consisted of acute intravenous administration of peptides was performed. For this, during the experiment, the arterial catheter was connected to the pressure transducer for the beginning of the record. After 90 minutes of cardiovascular parameters stabilization (baseline), the administration of the peptides […]-Ang-(1-7), Ang (1-7) or saline in a final volume of 300 uL was given in bolus. […] The Ang-(1-7) also was used to compare the effect induced by each peptide. Doses of 0.1 nmol/kg; 0.5 nmol/kg; 2.5 nmol/kg and 12.5 nmol/kg were administered to SHR (n=5-7 for each dose) while awake. […] After injection of the peptide or saline, cardiovascular parameters were continuously monitored for a period of 5 hours. The values of the MAP and HR were obtained every 10 minutes throughout the experimental period. Results are presented as mean±standard error of the mean. Two-way analysis of variance (ANOVA) with Bonferroni's multiple comparison post-test were used to compare the time-response curve obtained during the bolus administration in […]-Ang-(1-7) and Ang-(1-7). All statistical analyses were considered significant when p<0.05.

[1] = test system: mesenteric artery rings of SHR; assay: Vasorelaxation in mesenteric artery rings of SHR; design: species or system rat; conditions: expressed as percentage of decrease of phenylephrine contraction
Description: Rings (2.0 mm) of mesenteric artery (2nd and/or 3rd branches) in spontaneously hypertensive rats (SHR), free from adipose and connective tissue, were maintained in a gasified solution (95% 02 and 5% CO2) of Krebs-Hanseleit to 37° C. After a 15 minute stabilization period, the artery was stretched, gradually, to a resting tension considered optimal with respect to its inner diameter. In each arterial segment, the voltage/diameter was calculated by the internal circumference which corresponds to a transmural pressure of 100 mmHg for a relaxed vessel in situ (IC100) using software specific for standardization resistance arteries. For the experiments, the arteries were maintained with an internal circumference, IC1, calculated using the formula IC1=0.90×IC100, in which the development of strength is maximum, as previously described by Mulvany and Halpern (1977). The effective luminal diameter was determined according to the I1=IC1/π equation. The diameter of the vessels used ranged from 200 to 300 μm.
The arteries were stimulated with a high concentration of potassium chloride (KCl 120 mmol/1), in order to assess their functional integrity. […]
The presence of functional endothelium was assessed by the ability of acetylcholine [ACh] […] The mechanical activity was recorded isometrically using a myograph, and this was connected to a system for data acquisition and a computer. […]

[2] = test system: thoracic aortic rings of spontaneously hypertensive rats (SHR); assay: Vasorelaxation in thoracic aortic rings of spontaneously hypertensive rats (SHR) pre-contracted with phenylephrine; design: species or system rat; conditions: percentage of decrease of phenylephrine contraction
Description: Three- to four-mm rings of the descending thoracic aorta, free from adipose and connective tissue, were maintained in a gasified solution (95% 02 and 5% CO2) of Krebs-Henseleit, at 37° C. under 1.0 g tension, 1 hour for stabilization. The presence of functional endothelium was assessed by the ability of acetylcholine [ACh] (10 μmol/L) to induce more than 70% relaxation of vessels pre-contracted with phenylephrine (Phe) ([…]). The mechanical activity, recorded isometrically by a force transducer, was fed into a recorder-amplifier and a computer equipped with an analog-digital converter board, using CVMS data acquisition/recording software.
The vessels from normotensive Wistar rats and spontaneously hypertensive rats (SHR) were pre-contracted in the same voltage level (approximately 1.0 g tension) at the submaximal concentration of phenylephrine ([…]). Arg0-Ang-(1-7) and Ang-(1-7) were added in increasing cumulative concentrations as the response to phenylephrine was stabilized. Results are presented as mean±SEM. One-way analysis of variance (ANOVA) with Newman-Keuls post test of multiple comparisons was used to compare the concentration response curves obtained in the aortic rings. The vasodilatation effect of arg0-Ang-(1-7) and Ang-(1-7) was expressed as the percentage of decrease in peak concentration induced by phenylephrine. […]

Substance: Asp-Arg-Val-Tyr-Ile-His-Pro [Ang-(1-7)]
- change in HR (awake Wistar rats): failed to induce significant changes
- change in MAP (awake Wistar rats): failed to induce significant changes
- effect on MAP (PAM) (conscious SHR; SHR, IV bolus 0.1 nmol/kg): did not significantly alter PAM
- effect on MAP (conscious SHR; SHR, IV bolus 0.5 nmol/kg, vs saline group): no significant difference
- change in heart rate (FC) (conscious SHR; SHR, IV bolus 12.5 nmol/kg, last 30 minutes of the experiment): significantly reduced the FC
- time after administration at which anti-hypertensive effect was observed (conscious SHR; SHR, IV bolus 2.5 and 12.5 nmol/kg): 110 min
- effect on MAP (conscious SHR; SHR, IV bolus 2.5 and 12.5 nmol/kg, vs saline group): significant anti-hypertensive effect
- dose comparison of anti-hypertensive effect (conscious SHR; SHR, IV bolus 2.5 vs 12.5 nmol/kg): more potent at the dose of 2.5 nmol/kg
- change in heart rate (CF) (conscious SHR; SHR, IV bolus, all doses except 12.5 nmol/kg Ang-(1-7)): no change was observed
- change in MAP, time- and dose-dependent (conscious SHR; awake SHR, acute intravenous, different doses, vs saline group): significant reduction in MAP
- Emax of vasorelaxation [1]: 28%
- Emax of vasorelaxation [2]: 30±3%
